Measurements from PMC11033320, “Activation of p53 signaling and regression of breast and prostate carcinoma cells by spirooxindole-benzimidazole small molecules” (Frontiers in Pharmacology, 2024).

How the values were obtained:
NF-κB = experiment: Real time PCR NF-κB gene expression in MDA-MB 231 cells; settings: treated MDA-MB 231 cells compared to untreated cells
p53 = experiment: Immunohistochemical detection of p53 in MDA-MB 231 cells; assay type: cell-based, human; settings: MDA-MB 231, 72 h, compared to untreated cells
Method: (§1) After trypsinization, the untreated and treated MDA-MB231 cells were centrifuged and washed with PBS buffer and then 10% formalin in PBS was added to cell pellets. The fixed cell specimens were dehydrated in ascending grades of alcohol and immersed in xylene for one hour (three times) followed by impregnation in melted paraffin to from solid paraffin blocks. Then a rotator microtome was used to cut each block into 3-5 μm thick sections that were transferred into positively charge slides. Slides were dried at 60-70°C for 1-2 h then dewaxed by immersion in xylene 3 times and rehydrated in descending grading ethanol. After that slides were incubated in 3% H2O2 for 10 min, washed in PBS buffer twice for 3 min and put in 10 mM citrate buffer […] followed by heating for 10-20 min. After cooling and washing in PBS, slides were separately soaked overnight in primary antibodies (anti-Ki-67 and anti-p53). Slides were washed in PBS, covered with biotinylated goat anti-polyvalent secondary antibody for 10 min and then streptavidin peroxidase was added. After 10 min, substrate of secondary antibody (3,3'-diaminobenzidine) was added followed by washing in PBS and placing in hematoxylin bath for 1-4 min then washing in PBS (1 min) and water (3 min). Percentage of immunostained cells was evaluated by imaging analysis cellSens software of phase contrast microscope (Olympus, Japan).

Ki-67 = experiment: Immunohistochemical detection of Ki-67 in MDA-MB 231 cells; assay type: cell-based, human; settings: MDA-MB 231, 72 h; untreated 82.425%
Method: as §1

[1] = test system: human p53 transcription factor; experiment: p53 transcription factor activity assay in MDA-MB 231 cells; assay type: cell-based; settings: treated MDA-MB 231 cells relative to the untreated cells
Method: The relative fold activation of p53 in the treated MDA-MB 231 cells were quantified using human p53 transcription factor activity assay kit (RayBio, USA). Briefly, 100 µl of lysates of the untreated and treated MDA-MB 231 cells were added to p53 probe-coated 96 wells and incubated for 2 h (these oligonucleotides capture the active p53 in cell lysate). After washing for discarding unbound p53, primary antibody was added to bound p53-DNA complex, incubated for 1 h. Each well was washed then peroxidase-conjugated secondary antibody was added and incubated for 1 h. After washing and incubating with substrate for 30 min, the absorbance was measured at 450 nm.

cyclin D = experiment: Real time PCR cyclin D gene expression in MDA-MB 231 cells; settings: treated MDA-MB 231 cells compared to untreated cells
p21 = experiment: Real time PCR p21 gene expression in MDA-MB 231 cells; settings: treated MDA-MB 231 cells compared to untreated cells

| SMILES | expression level of NF-κB (NF-κB) | increase of protein level of p53 (p53) | Ki-67 level (positive immunostaining cells) (Ki-67) | fold activation of p53 transcription factor [1] | expression level of cyclin D (cyclin D) | upregulation of p21 expression (p21) |
| --- | --- | --- | --- | --- | --- | --- |
| O=C(c1nc2ccccc2[nH]1)[C@H]1[C@H](c2ccccc2)C2CSCN2[C@]12C(=O)Nc1ccccc12 (mixture of isomers) [Compound 6a, (3S,6′R)-6'-(1H-benzo [d]imidazole-2-carbonyl)-7′-phenyl-3′,6′,7′,7a′-tetrahydro-1′H-spiro [indoline-3.5′-pyrrolo [1,2-c]thiazol]-2-one] | downregulating | 60.2% | 1.18% | 5.983 ± 0.142 fold | downregulating | – |
| Cc1ccc([C@@H]2C3CSCN3[C@]3(C(=O)Nc4ccccc43)[C@H]2C(=O)c2nc3ccccc3[nH]2)cc1 (mixture of isomers) [Compound 6d, (3S,6′R)-6'-(1H-Benzo [d]imidazole-2-carbonyl)-7'-(p-tolyl)-3′,6′,7′,7a′-tetrahydro-1′H-spiro [indoline-3.5′-pyrrolo [1,2-c]thiazol]-2-one] | downregulating | 54.7% | 3.03% | 6.287 ± 0.254 fold | downregulating | greater than three times |
